Source: patent US20060228395A1, “Vitamin E phosphate/phosphatidylcholine liposomes to protect from or ameliorate cell damage” (priority 2005, published 2006)

Legend:
male albino mice = assay: Allyl alcohol-induced liver injury in male albino mice (SGPT); assay type: in vivo; conditions: allyl alcohol alone, single intraperitoneal dose 50 mg/kg, 4 hours; ± SEM
Procedure: Influence of vitamin E phosphate/phosphatidylcholine liposomes (see example 1) on Allyl alcohol-induced liver injury was evaluated in male albino mice.

[1] = system: isolated liver cells (1000×g cell fraction); assay: Iron-dependent liver cell lipid peroxidation (LCLP); assay type: cell-based; conditions: SEM
Liver cells [2] = assay: Incorporation of labeled choline into phosphatidylcholine (PC biosynthesis) by liver cells with iron; assay type: cell-based; conditions: SEM
Description: The study of effects oil liver cells was also considered based on evaluation of effect on increase in the incorporation of labeled choline into phosphatidylcholine (phosphatidylcholine biosynthesis) by liver cells. Vitamin E phosphate/phosphatidylcholine produced greater beneficial effects than either vitamin E phosphate or phosphatidylcholine.

Liver cells [3] = assay: Phosphatidylcholine formation in liver cells dysfunctional due to ethanol exposure; assay type: cell-based
Procedure: Liver cells which had become dysfunctional due to exposure to ethanol were incubated 24 hours with vitamin E phosphate/phosphatidylcholine liposomes. The pmoles of phosphatidylcholine formed per minute/mg protein was then measured with the following results: […]

cultured liver cells = assay: Reversal of ethanol damage in cultured liver cells (phosphatidylcholine biosynthesis); assay type: cell-based; conditions: 96 h, ± SEM
Procedure: The use of vitamin E phosphate/phosphatidylcholine to effect reversal of damage from ethanol on liver cells was then studied. The cultured liver cells were incubated with 25 mM or 50 mM ethanol for 96 hours, at which time there is significant reduction in liver cell function (phosphatidylcholine biosynthesis). The effect of adding vitamin E phosphate/phosphatidylcholine after 72 hours was studied, and 24 hours later (96 hours after initial exposure to ethanol) values were obtained.

[4] = 1 mM iron plus addition: PC 100 μM, VEP 50 μm, or combination VEP/PC

C=CCO [Allyl alcohol]
SGPT (male albino mice): 330 ± 15 % of control

Cc1c(C)c2c(c(C)c1OP(=O)(O)O)CCC(C)(CCCC(C)CCCC(C)CCCC(C)C)O2 (centres unmarked) [VEP, vitamin E phosphate]
LCLP (liver cell lipid peroxidation) [1, 4]: 167 ± 3 % control | PC biosynthesis (Liver cells [2]; [4]): 145 ± 4 % control

CCO [ethanol]
phosphatidylcholine formed (Liver cells [3]; cells exposed to ethanol (control 75)): 25 pmoles per minute/mg protein | phosphatidylcholine formed (Liver cells [3]; cells exposed to ethanol, then incubated 24 hours in water): 27 pmoles per minute/mg protein | liver cell function (phosphatidylcholine biosynthesis) (cultured liver cells; 25 mM ethanol alone): 38 ± 2 % control | liver cell function (phosphatidylcholine biosynthesis) (cultured liver cells; 50 mM ethanol alone): 22 ± 1 % control

[Fe] [iron]
LCLP (liver cell lipid peroxidation) ([1]; 1 mM iron alone): 357 ± 12 % control | PC biosynthesis (Liver cells [2]; 1 mM iron alone): 254 ± 9 % control

phosphatidylcholine [PC]
LCLP (liver cell lipid peroxidation) [1, 4]: 281 ± 4 % control | PC biosynthesis (Liver cells [2]; [4]): 167 ± 4 % control
